Earlier results as cited in US20250224401A1, “METHODS OF DIAGNOSING B CELL MALIGNANCIES, DETECTING B CELL MALIGNANCY RELAPSE, AND TREATING THEREOF” (Rutgers, The State University of New Jersey, priority 2022, published 2025).

Tested on: cultured human malignant B cells
Conditions: in vitro

Question: With `C=CC(=O)N1CCC[C@@H](n2nc(-c3ccc(Oc4ccccc4)cc3)c3c(N)ncnc32)C1` [ibrutinib] as the compound, how does the “cytotoxic effects on cultured human malignant B cells” value read?
Answer: moderate or minimal cytotoxic effects
